From PubChem BioAssay (NCI)
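Briefly, cells in 96-well plates were exposed to five compound concentrations for 48 h, and endpoints were estimated by linear interpolation. The concentration for 50% growth inhibition is given as GI50. Definition used: TGI = concentration required for complete inhibition of growth.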

Assays:
Experiment in all cases: growth of human tumour cells (NCI), 48 h
SN12C renal = tested on: SN12C renal
786-0 renal = tested on: 786-0 renal
KM12 colon = tested on: KM12 colon
PC-3 prostate = tested on: PC-3 prostate
HL-60(TB) leukemia = tested on: HL-60(TB) leukemia
MALME-3M melanoma = tested on: MALME-3M melanoma
UACC-62 melanoma = tested on: UACC-62 melanoma
EKVX NSCLC = tested on: EKVX NSCLC
TK-10 renal = tested on: TK-10 renal
RXF 393 renal = tested on: RXF 393 renal

Compound | TGI (SN12C renal) | TGI (786-0 renal) | TGI (KM12 colon) | TGI (PC-3 prostate) | TGI (HL-60(TB) leukemia) | TGI (MALME-3M melanoma) | TGI (UACC-62 melanoma) | TGI (EKVX NSCLC) | TGI (TK-10 renal) | TGI (RXF 393 renal) | GI50 (SN12C renal) | GI50 (786-0 renal) | GI50 (KM12 colon) | GI50 (PC-3 prostate) | GI50 (HL-60(TB) leukemia) | GI50 (MALME-3M melanoma) | GI50 (UACC-62 melanoma) | GI50 (EKVX NSCLC) | GI50 (TK-10 renal) | GI50 (RXF 393 renal)
O=C1c2ccccc2-c2c1c1ccccc1c(=O)n2CCO | > 100 µM | > 100 µM | > 100 µM | > 100 µM | 7.29 µM | > 100 µM | > 59.5 µM | > 100 µM | > 100 µM | > 100 µM |  |  |  |  |  |  |  |  |  | 
O=[N+]([O-])c1ccc(N/N=C\c2cc(Cl)ccc2O)nc1 | > 100 µM | 11.2 µM | > 100 µM | 55.6 µM | 8.02 µM | 20.5 µM | 34.1 µM | > 100 µM | 23.6 µM | 38.8 µM | 2.99 µM | 2.18 µM | 1.06 µM | 0.747 µM | 0.65 µM | 2.68 µM | 3.18 µM | 8.05 µM | 2 µM | 5.66 µM
C[C@H]1[C@H](OC(=O)CCC(=O)O)O[C@@H]2O[C@]3(C)CC[C@H]4[C@H](C)CC[C@@H]1[C@@]24OO3 | > 48.9 µM | 25.8 µM | 12 µM | > 100 µM | 0.566 µM | 31.6 µM | 27.4 µM | 18.3 µM | 11.6 µM | 33 µM | 0.777 µM | 1.12 µM | 0.168 µM | 0.0886 µM | 0.167 µM | 0.878 µM | 0.474 µM | 0.443 µM |  | 0.953 µM
O/N=C1\CCc2cc(-c3nc(C4CCNCC4)[nH]c3-c3ccncc3)ccc21 | > 25 µM | > 25 µM | > 25 µM | > 25 µM | > 25 µM | 12.3 µM | > 25 µM | > 25 µM | > 25 µM | > 25 µM | > 25 µM | > 25 µM | > 25 µM | > 25 µM | > 25 µM | 3.02 µM | 0.24 µM | > 25 µM | > 25 µM | > 25 µM
CC1(C)CC(=O)C2=C(C1)NC(SSC1=C(C#N)C(c3ccccc3)C3=C(CC(C)(C)CC3=O)N1)=C(C#N)C2c1ccccc1 (centres undefined) | 43.7 µg/mL | 49.5 µg/mL | 49.7 µg/mL | 47.5 µg/mL | 97.8 µg/mL | 48.6 µg/mL | 47.6 µg/mL | 56.2 µg/mL | 48.1 µg/mL | 47 µg/mL | 23.5 µg/mL | 28.4 µg/mL | 26.2 µg/mL | 26.1 µg/mL | 33.7 µg/mL | 27.3 µg/mL | 26.3 µg/mL | 28.6 µg/mL | 26.9 µg/mL | 25.7 µg/mL
O=C(Nc1ccncc1)C(=O)c1cn(S(=O)(=O)c2ccc(Br)cc2)c2ccccc12 | > 100 µM | > 100 µM | > 100 µM | > 100 µM | > 100 µM | > 100 µM | > 100 µM | > 100 µM | > 100 µM | > 100 µM | 43.5 µM | 46.3 µM | 3.88 µM | 8.87 µM | 2.41 µM | 24.2 µM | 3.79 µM | 3.81 µM | 15.1 µM | 7.28 µM
